Data: patent US5679695A, “Aryl and heteroaryl compounds having anti-retrovirus activity” (The University of Connecticut, priority 1995, dated 1997)

Assays:
[1] = system: Rauscher Murine Leukemia Virus (MLV); assay: Rauscher MuLV UV-XC plaque assay; assay type: cell-based
Protocol: One such method is used to determine the effectiveness of representative compounds and compositions of the present invention in the Rauscher and LP-BMS Murine Leukemia Virus (MLV) In Vitro Assays.
SC-1 cells were grown as monolayers in 6-well tissue culture plates (Falcon). The a test compound was added to the cultures at the time of virus inoculation (approximately 24 hours after the cells were seeded) and was present for 3 days, at which time the cultures were irradiated with UV light. All compounds were solubilized in DMSO prior to dilution in grown medium. The highest concentration of DMSO present in the cultures was 0.05%. The test cultures (triplicate cultures per drug concentrate) each contained 2 ml of test compound diluted in growth medium (Eagle's minimum) essential medium (EMEM) supplemented with 5% heat-inactivated fetal bovine serum (FBS) and 0.5 ml of the virus suspension diluted to produce a countable number of plaques per well. The six virus control cultures contained 2 ml of medium and 0.5 ml of the virus suspension. NSC606170(ddC) was included as a positive control. drug. Drug cytotoxicity control cultures (containing test compound) but no virus and cell control culture (containing no test compound) or virus were included in the assay. On day 3 post-virus inoculation, the cultures were irradiated and XC cells were added. Three days after V-irradiation, the cultures were fixed with formalin and stained with 0.1% crystal violet. The plaques were counted with the aid of a dissection microscope.
(§1) Using the procedure, the following data is generated from representative compounds of the presnet invention.

[2] = Dye conversion (MTT formazan) assay of drug-induced cytotoxicity; assay type: cell-based; details: mouse, sc-1 cells; for cytotoxicity at 72 h, 1000 µM / viability at 72 h, 1000 µM: 1 × 10^-3 M; for cytotoxicity at 72 h, 1000 µM / cytotoxicity at 72 h, 100 µM / cytotoxicity at 72 h, 10 µM / cytotoxicity at 72 h, 1 µM / cytotoxicity at 72 h, 0.1 µM / cytotoxicity at 72 h, 0.01 µM: read-out: % Reduction; for viability at 72 h, 1000 µM / viability at 72 h, 100 µM / viability at 72 h, 10 µM / viability at 72 h, 1 µM / viability at 72 h, 0.1 µM / viability at 72 h, 0.01 µM: read-out: % of Control; for cytotoxicity at 72 h, 100 µM / viability at 72 h, 100 µM: 1 × 10^-4 M; for cytotoxicity at 72 h, 10 µM / viability at 72 h, 10 µM: 1 × 10^-5 M; for cytotoxicity at 72 h, 1 µM / viability at 72 h, 1 µM: 1 × 10^-6 M; for cytotoxicity at 72 h, 0.1 µM / viability at 72 h, 0.1 µM: 1 × 10^-7 M; for cytotoxicity at 72 h, 0.01 µM / viability at 72 h, 0.01 µM: 1 × 10^-8 M
Protocol: (§2) A dye conversion assay to determine drug-induced cytotoxicity was performed. This assay is based on the conversion of MTT to a formazan product in living cells. This conversion results in a color change which can be detected spectrophotometrically. A 96-well tissue culture plate was seeded with […] per well at the time that the 6-well plates were seeded for the UV-XC plaque assay. The following day, the medium was decanted and the cell control cultures received 100 ul of medium. The drug controls received 80 ul of drug and 20 ul of medium such that the final concentration of drug was equivalent to that used in the 6-well plates. On day 3 after addition of the drug, 50 ul of a 2 mg/ml solution of MTT in EMEM with 5% heat-inactivated FBS were added each well. The culture was incubated for 7 hours and 100 ul of a 10% SDS: 0.01 N HCL solution was added to each well. The culture was incubated overnight and the following morning the optical density (O.D.) was read at 570 nm wavelength on a Perkin-Elmer spectrophotometer. The percent reduction in the drug-treated cell. O.D. reading compared to the control cell O.D. reading was calculated.
as §1

SC-1 cells = assay: as above; assay type: cell-based; details: 570 nm
Protocol: as §2, §1

HIV-1 = assay: XTT assay of protection from HIV-1 cytopathic effect, infected, CEM-IW; assay type: cell-based, Human Immunodeficiency Virus; details: Human immunodeficiency virus 1, CEM-IW, summary table; read-out: CEM-IW EC50
Protocol: Another assay for testing the efficacy of the compounds is the procedure* used in the National Cancer Institute's test for agents active against Human Immunodeficiency Virus (HIV). It is designed to detect agents acting at any stage of the virus reproductive cycle. The assay basically involves the killing of T4 lymphocytes by HIV. Small amounts of HIV are added to cells, and a complete cycle of virus reproduction is necessary to obtain the required cell killing. Agents that interact with virions, cells, or virus gene-products to interfere with viral activities will protect cells from cytolysis. The system is automated in several features to accommodate large numbers of candidate agents and is generally designed to detect anti-HIV activity. However, compounds that degenerate, or are rapidly metabolized in the culture conditions may not show activity in this screen. All tests are compared with at least one positive (e.g., AZT-treated) control done at the same time under identical conditions.
* Weislow. O. W., Kiser, R., Fine, D., Bader, J., Shoemaker, R. H., Boyd, M. R.: New soluble-formazan assay for HIV-1 cytopathic effects: application to high-flux screening of synthetic and natural products for AIDS-antiviral activity. J. Natl. Cancer Inst. 81:577-586, 1989.
1. The Candidate agent is dissolved in dimethyl sulfoxide (unless otherwise instructed) then diluted 1:100 in cell culture medium before preparing serial half-log10 dilutions. T4 lymphocytes (CEM cell line) are added and after a brief interval HIV-1 added, resulting in a 1:200 final dilution of the compound. Uninfected cells with the compound serve as a toxicity control, and infected and uninfected cells without compound serve as basic controls.
2. Cultures are incubated at 37° in a 5% carbon dioxide atmosphere for 6 days.
3. The tetrazolium salt, XTT, is added to all wells, and cultures are incubated to allow formazan color development by viable cells.
4. Individual wells are analyzed spectrophotometrically to quantitate formazan production, and in addition are viewed microscopically for detection of viable cells and confirmation of protective activity.
5. Drug-treated virus-infected cells are compared with drug-treated noninfected cells and with other appropriate controls (untreated infected and untreated noninfected: cells, drug-containing wells without cells, etc.) on the same plate.
6. Data are reviewed in comparison with other tests done at the same time and a determination about activity is made.

[3] = Murine leukemia virus, SC-1, 1 × 10^-4 M, read-out: % Plaque Reduction
[4] = Murine leukemia virus, SC-1, 1 × 10^-5 M, read-out: % Plaque Reduction
[5] = Murine leukemia virus, SC-1, 1 × 10^-6 M, read-out: % Plaque Reduction
[6] = Murine leukemia virus, SC-1, 1 × 10^-7 M, read-out: % Plaque Reduction
[7] = Murine leukemia virus, SC-1, 1 × 10^-8 M, read-out: % Plaque Reduction

## O=[N+]([O-])c1ccccc1S(=O)(=O)c1ccccc1 [Compound 1, 1-Nitro-2-(phenylsulfonyl)benzene]
[1]; 1 × 10^-4 M
  Mean plaque count: 46
  Plaque count, replicate #1: 43
  Plaque count, replicate #2: 48
  Plaque count, replicate #3: 46
[1]; 1 × 10^-5 M
  Mean plaque count: 53
  Plaque count, replicate #1: 58
  Plaque count, replicate #2: 42
  Plaque count, replicate #3: 60
[1]; 1 × 10^-6 M
  Mean plaque count: 56
  Plaque count, replicate #1: 71
  Plaque count, replicate #2: 43
  Plaque count, replicate #3: 53
[1]; 1 × 10^-7 M
  Mean plaque count: 64
  Plaque count, replicate #1: 53
  Plaque count, replicate #2: 69
  Plaque count, replicate #3: 71
[1]; 1 × 10^-8 M
  Mean plaque count: 65
  Plaque count, replicate #1: 64
  Plaque count, replicate #2: 55
  Plaque count, replicate #3: 76
[1]; [3]
  inhibition at 100 µM: 26%
[1]; [4]
  inhibition at 10 µM: 14%
[1]; [5]
  inhibition at 1 µM: 10%
[1]; [6]
  inhibition at 0.1 µM: 0%
[1]; [7]
  inhibition at 0.01 µM: 0%
[2]
  cytotoxicity at 72 h, 1000 µM: 45%
  viability at 72 h, 1000 µM: 55%
  cytotoxicity at 72 h, 100 µM: 15%
  viability at 72 h, 100 µM: 85%
  cytotoxicity at 72 h, 10 µM: 3%
  viability at 72 h, 10 µM: 97%
  cytotoxicity at 72 h, 1 µM: 2%
  viability at 72 h, 1 µM: 98%
  cytotoxicity at 72 h, 0.1 µM: 0%
  viability at 72 h, 0.1 µM: 101%
  cytotoxicity at 72 h, 0.01 µM: 1%
  viability at 72 h, 0.01 µM: 99%
SC-1 cells; 1 × 10^-3 M
  O.D. Reading: 0.851
SC-1 cells; 1 × 10^-4 M
  O.D. Reading: 1.320
SC-1 cells; 1 × 10^-5 M
  O.D. Reading: 1.504
SC-1 cells; 1 × 10^-6 M
  O.D. Reading: 1.522
SC-1 cells; 1 × 10^-7 M
  O.D. Reading: 1.566
SC-1 cells; 1 × 10^-8 M
  O.D. Reading: 1.530
HIV-1
  EC50: 4.41 µM

## Cc1ccc(S(=O)(=O)c2ccccc2[N+](=O)[O-])cc1 [Compound 2, 1-(4-Methylphenylsulfonyl)-2-nitrobenzene]
[1]; 1 × 10^-3 M
  Mean plaque count: 19
  Plaque count, replicate #1: 20
  Plaque count, replicate #2: 20
  Plaque count, replicate #3: 17
[1]; 1 × 10^-4 M
  Mean plaque count: 8
  Plaque count, replicate #1: 9
  Plaque count, replicate #2: 8
  Plaque count, replicate #3: 8
[1]; 1 × 10^-5 M
  Mean plaque count: 64
  Plaque count, replicate #1: 60
  Plaque count, replicate #2: 69
  Plaque count, replicate #3: 64
[1]; 1 × 10^-6 M
  Mean plaque count: 61
  Plaque count, replicate #1: 72
  Plaque count, replicate #2: 53
  Plaque count, replicate #3: 5
[1]; 1 × 10^-7 M
  Mean plaque count: 56
  Plaque count, replicate #1: 52
  Plaque count, replicate #2: 57
  Plaque count, replicate #3: 60
[1]; 1 × 10^-8 M
  Mean plaque count: 60
  Plaque count, replicate #1: 62
  Plaque count, replicate #2: 56
  Plaque count, replicate #3: 63
[1]; Murine leukemia virus, SC-1, 1 × 10^-3 M, read-out: % Plaque Reduction
  inhibition at 1000 µM: 69%
[1]; [3]
  inhibition at 100 µM: 87%
[1]; [4]
  inhibition at 10 µM: 0%
[1]; [5]
  inhibition at 1 µM: 2%
[1]; [6]
  inhibition at 0.1 µM: 9%
[1]; [7]
  inhibition at 0.01 µM: 3%
[2]
  cytotoxicity at 72 h, 1000 µM: 31%
  viability at 72 h, 1000 µM: 69%
  cytotoxicity at 72 h, 100 µM: 13%
  viability at 72 h, 100 µM: 87%
  cytotoxicity at 72 h, 10 µM: 8%
  viability at 72 h, 10 µM: 92%
  cytotoxicity at 72 h, 1 µM: 8%
  viability at 72 h, 1 µM: 92%
  cytotoxicity at 72 h, 0.1 µM: 8%
  viability at 72 h, 0.1 µM: 92%
  cytotoxicity at 72 h, 0.01 µM: 9%
  viability at 72 h, 0.01 µM: 91%
SC-1 cells; 1 × 10^-3 M
  O.D. Reading: 1.066
SC-1 cells; 1 × 10^-4 M
  O.D. Reading: 1.345
SC-1 cells; 1 × 10^-5 M
  O.D. Reading: 1.425
SC-1 cells; 1 × 10^-6 M
  O.D. Reading: 1.418
SC-1 cells; 1 × 10^-7 M
  O.D. Reading: 1.429
SC-1 cells; 1 × 10^-8 M
  O.D. Reading: 1.411
HIV-1
  EC50: 14.5 µM
